Key:
Type in all cases: in vivo
[1] = Single-dose oral administration of free fatty acids to SD rats: food intake; settings: male SD rats
Description: Using a 1.5% (by weight) aqueous solution of a fatty acid ester of glycerol (RYOTO® POLYGLYESTER; product of Mitsubishi-Kagaku Foods Corporation) as a solvent, a free fatty acid form of palmitoleic acid (C16:1), a free fatty acid form of palmitic acid (C16:0), a free fatty acid form of oleic acid (C18:1), a free fatty acid form of lauric acid (C12:0), a free fatty acid form of decenoic acid (C10:1), and a free fatty acid form of linoleic acid (C18:2), all being products of Sigma, were added to the solvent and uniformly emulsified by sonication in an ice bath to thereby prepare dosing samples.
(§1) Male Sprague-Dawley rats (hereinafter referred to as SD rats) were used in the experiment. Nine-week-old SD rats (Japan SLC, Inc.) were purchased and preliminarily reared for a week in individual cages. During the preliminary rearing period, the animals were allowed free access to the solid feed Labo MR Stock (Nosan Corporation) and distilled water through water bottles.
After the preliminary rearing, the 10-week-old SD rats were divided into the following seven groups (10 animals per group) considering their body weight: a control group administered with only the solvent (hereinafter referred to as “control group”); a group administered with palmitoleic acid (C16:1) (hereinafter “C16:1 administered group”); a group administered with palmitic acid (C16:0) (hereinafter “C16:0 administered group”); a group administered with oleic acid (C18:1) (hereinafter “C18:1 administered group”); a group administered with lauric acid (C12:0) (hereinafter “C12:0 administered group”); a group administered with decenoic acid (C10:1) (hereinafter “C10:1 administered group”); and a group administered with linoleic acid (C18:2) (hereinafter “C18:2 administered groups”); these groups of rats were subjected to the main test. In the main test, the solvent or each fatty acid under test was orally administered in a single dose through a gastric tube on the very day of the experiment. To the control group of SD rats, the solvent was orally administered at a dose of 10 mL/kg per animal. The test subjects, C16:1, C16:0, C18:1, C12:0, C10:1 and C18:2, each taken in an amount of 150 mg or 500 mg, were added to 10 mL of the solvent and emulsified; the emulsion was orally administered to the SD rats in a dose of 10 mL/kg per animal and a measurement was conducted both 30 minutes and an hour later. The amount of food intake (the amount of food supplied immediately after the dosing of sample minus the amount of food at a specified time after the dosing of sample) was measured both 30 minutes and an hour after oral administration of the test sample.

CCK mRNA = test: Small intestine CCK mRNA expression level in SD rats after single oral dose (real-time PCR); settings: male SD rats; an hour after single oral dose 500 mg/kg; versus control group (FIG. 14)
Description: (§2) Using a 1.5% (by weight) aqueous solution of a fatty acid ester of glycerol (RYOTO® POLYGLYESTER; product of Mitsubishi-Kagaku Foods Corporation) as a solvent, a free fatty acid form of palmitoleic acid (C16:1) and a free fatty acid form of oleic acid (C18:1), both being products of Sigma, were added to the solvent and uniformly emulsified by sonication in an ice bath to thereby prepare dosing samples.
(§3) Male Sprague-Dawley rats (hereinafter referred to as SD rats) were used in the test. Nine-week-old SD rats (Japan SLC, Inc.) were purchased and preliminarily reared for a week in individual cages. […]
(§4) After the preliminary rearing, the 10-week-old SD rats were divided into the following three groups (10 animals per group) considering their body weight: a control group administered with only the solvent (hereinafter referred to as “control group”); a group administered with palmitoleic acid (C16:1) (hereinafter “C16:1 administered group”); and a group administered with oleic acid (C18:1) (hereinafter “C18:1 administered group”); these groups of rats were subjected to the main test. […] With the level of gene expression in the control group taken as unity, the relative expression levels of respective genes in the C16:1 administered group or 18:1 administered group were calculated. […]

[2] = Long-term oral administration of free fatty acids to KKAy mice: food intake and body weight; settings: male KKAy mice
Description: Using a 1.5% (by weight) aqueous solution of a fatty acid ester of glycerol (RYOTO®POLYGLYESTER; product of Mitsubishi-Kagaku Foods Corporation) as a solvent, a free fatty acid form of palmitoleic acid (C16:1), a free fatty acid form of palmitic acid (C16:0), a free fatty acid form of gadoleic acid (C20:1), and a free fatty acid form of erucic acid (C22:1), all being products of Sigma with purities of 99% and more, were added to the solvent and uniformly emulsified by sonication in an ice bath to thereby prepare dosing samples.
as §1, with “Male, spontaneously diabetic model mice KKAy/Ta” for “Male Sprague-Dawley rats”, “KKAy mice)” for “SD rats)”, “test. Five-week-old KKAy mice (CLEA Japan,” for “experiment. Nine-week-old SD rats (Japan SLC,”
After the preliminary rearing, the 6-week-old KKAy mice were divided into the following five groups (10 animals per group) considering their body weight: a control group administered with only the solvent (hereinafter referred to as “control group”); a group administered with palmitoleic acid (C16:1) (hereinafter “C16:1 administered group”); a group administered with palmitic acid (C16:0) (hereinafter “C16:0 administered group”); a group administered with gadoleic acid (C20:1) (hereinafter “C20:1 administered group”); and a group administered with erucic acid (C22:1) (hereinafter “C22:1 administered group”); these groups of mice were subjected to the main test. In the main test, the mice of each group were reared for 4 weeks under the environment of light (12 hr) and dark (12 hr) cycles as they were allowed free access to the powdered feed Labo MR Stock (Nosan Corporation) and distilled water through water bottles. In the process, the solvent or each fatty acid under test was orally administered through a gastric tube at 10 a.m. every day. […]
During the 4-week rearing period, the amount of food supplied was measured at days 1, 5, 9, 12, 16, 19, 23 and 26 after dosing and the amount of leftover was measured on the next day, with the respective measurements being conducted for each feeder. The amount of daily food intake was calculated from the difference between the values for two consecutive measurements. The “average food intake” is the average of the food intakes as measured on the respective days of measurement. […] The percent body weight gain was calculated by the formula [(final body weight−initial body weight)/initial body weight]×100. The “final body weight” is the body weight as measured after the end of the 4-week rearing period whereas “initial body weight” is the body weight as measured at the start of the test.

cholecystokinin (CCK) = test: Blood cholecystokinin (CCK) level in SD rats after single oral dose (ELISA); settings: male SD rats, versus control group (FIG. 13)
Description: as §2, §3, §4

[3] = an hour after single oral dose 150 or 500 mg/kg, comparison with other fatty acids, versus control group (FIG. 11)

CCCCCCCCCCCC(=O)O [C12:0, lauric acid, reference compound]
food intake [1, 3]: no significant drops

CCCCCCCCCCCCCCCC(=O)O [C16:0, palmitic acid, reference compound]
food intake (test for dose-dependency) ([1]; 30 minutes after single oral dose 50, 150 or 500 mg/kg, compared with control group and C16:0 administered group (FIG. 7)): decreased significantly in a dose-dependent manner

CCCCCC/C=C\CCCCCCCC(=O)O [C16:1, palmitoleic acid]
small intestine CCK mRNA expression level (CCK mRNA): increased significantly
food intake ([1]; 30 minutes after single oral dose 500 mg/kg, compared with control group and C16:0 administered group (FIGS. 5 and 6)): significant drop in food intake
food intake ([1]; 30 minutes after single oral dose 150 or 500 mg/kg, compared with control group and C18:1 administered group (FIGS. 8-9)): significant drops in food intake
food intake ([1]; an hour after single oral dose 500 mg/kg, compared with control group and C16:0 administered group (FIGS. 5 and 6)): significant drop in food intake
food intake ([1]; an hour after single oral dose 150 or 500 mg/kg, compared with control group and C18:1 administered group (FIGS. 8, 10)): significant drops in food intake
food intake [1, 3]: significant drops in food intake
food intake ([2]; 300 mg in 10 mL solvent, 10 mL/kg oral every day, 4 weeks, compared with control group (FIGS. 1 and 2)): significant drops in the food intake
percent body weight gain ([2]; 4 weeks after administration, compared with control group (FIG. 4)): significant drop in the percent body weight gain
daily averages for the amount of food intake ([2]; daily oral administration, 4 weeks, FIG. 2, P<0.05): significant drop in the amount of food intake
body weight ([2]; daily oral administration, second to fourth week of dosing, compared with control group (FIG. 3)): significant drop in body weight
blood CCK level (cholecystokinin (CCK); an hour after single oral dose 500 mg/kg): increased significantly

CCCCC/C=C\C/C=C\CCCCCCCC(=O)O [C18:2, linoleic acid, reference compound]
food intake [1, 3]: no significant drops

CCCCCCCC/C=C\CCCCCCCC(=O)O [oleic acid, reference compound]
blood CCK level (cholecystokinin (CCK); an hour after single oral dose 150 or 500 mg/kg): no significant elevation

decenoic acid [C10:1, reference compound]
food intake [1, 3]: no significant drops
